The target of data set [1] is T1, recombinant guanylate cyclase reporter cell line (Rattus norvegicus, UniProt P19686+P20595).
T1 construct: expressed in transfected cells
T1 sequence (P20595 1-619): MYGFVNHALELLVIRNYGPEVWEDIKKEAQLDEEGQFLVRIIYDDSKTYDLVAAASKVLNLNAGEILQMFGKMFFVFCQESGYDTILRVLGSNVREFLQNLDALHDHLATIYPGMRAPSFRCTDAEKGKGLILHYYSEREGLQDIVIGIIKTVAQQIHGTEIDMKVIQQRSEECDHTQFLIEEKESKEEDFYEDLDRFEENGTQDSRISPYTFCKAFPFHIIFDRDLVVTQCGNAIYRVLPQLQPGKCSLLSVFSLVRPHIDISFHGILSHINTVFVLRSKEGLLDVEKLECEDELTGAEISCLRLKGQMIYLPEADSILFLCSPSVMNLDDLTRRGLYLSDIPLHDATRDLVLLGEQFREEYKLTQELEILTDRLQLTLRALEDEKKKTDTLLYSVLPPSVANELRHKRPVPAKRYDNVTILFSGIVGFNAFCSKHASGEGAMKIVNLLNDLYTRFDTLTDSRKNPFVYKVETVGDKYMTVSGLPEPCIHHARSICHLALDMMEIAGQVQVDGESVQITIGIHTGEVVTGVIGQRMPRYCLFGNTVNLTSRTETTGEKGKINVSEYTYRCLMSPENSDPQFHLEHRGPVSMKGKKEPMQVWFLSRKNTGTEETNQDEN
T1 sequence (P19686 1-690): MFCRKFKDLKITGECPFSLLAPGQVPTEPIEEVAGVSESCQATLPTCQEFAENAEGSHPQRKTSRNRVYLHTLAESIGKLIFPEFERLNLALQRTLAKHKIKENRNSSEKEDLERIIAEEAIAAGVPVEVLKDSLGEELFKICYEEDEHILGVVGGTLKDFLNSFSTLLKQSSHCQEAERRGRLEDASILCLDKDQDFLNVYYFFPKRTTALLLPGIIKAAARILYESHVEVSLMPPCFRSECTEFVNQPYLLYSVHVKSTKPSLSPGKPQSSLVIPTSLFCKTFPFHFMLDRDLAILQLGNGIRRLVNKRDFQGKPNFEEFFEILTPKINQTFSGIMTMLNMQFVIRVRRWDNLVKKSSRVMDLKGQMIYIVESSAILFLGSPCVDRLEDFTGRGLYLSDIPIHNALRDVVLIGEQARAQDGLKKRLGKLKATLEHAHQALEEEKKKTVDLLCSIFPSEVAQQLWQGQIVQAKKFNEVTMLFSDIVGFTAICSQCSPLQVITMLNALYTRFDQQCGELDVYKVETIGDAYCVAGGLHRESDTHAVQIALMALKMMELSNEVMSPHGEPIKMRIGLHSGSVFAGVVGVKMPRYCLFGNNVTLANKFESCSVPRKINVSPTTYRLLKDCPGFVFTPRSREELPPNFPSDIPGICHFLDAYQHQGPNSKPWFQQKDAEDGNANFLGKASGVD
In words: Action on recombinant guanylate cyclase reporter cell line. In kind it is cell-based. The note with it: in some cases mean values obtained from individual determinations. The method in brief:
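Cell-based reporter assay with recombinant guanylate cyclase expressed in a reporter cell line, per a published method. Activity reported as minimal effective concentration (MEC), in some cases as the mean of individual determinations.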

Data set [2] in a line: Determination of pharmacokinetic parameters following intravenous and oral administration (rats). The format is in vivo, male Wistar rats. The conditions noted are these: following intravenous and peroral administration; for MRT / half-life: male, Wistar, rat, plasma; for MRT: read-out: MRT (Mean Residence Time); for half-life: read-out: t½ (terminal half life) (converted). On the procedure: B-6. Determination of Pharmacokinetic Parameters Following Intravenous and Oral Administration
The pharmacokinetic parameters of the compounds according to the invention are determined in male CD-1 mice, male Wistar rats and female beagles. Intravenous administration in the case of mice and rats is carried out by means of a species-specific plasma/DMSO formulation, and in the case of dogs by means of a water/PEG400/ethanol formulation. In all species, oral administration of the dissolved substance is performed via gavage, based on a water/PEG400/ethanol formulation.
The taking of blood from rats is simplified by inserting a silicone catheter into the right Vena jugularis externa prior to substance administration. The operation is carried out at least one day prior to the experiment with […] and administration of an analgesic (atropin/Rimadyl (3/1) 0.1 ml s.c.). The blood is taken (generally more than 10 time points) within a time window including terminal time points of at least 24 to a maximum of 72 hours after substance administration. When the blood is taken, it is passed into heparinised tubes. Then the blood plasma is obtained by centrifugation and is optionally stored at −20° C. until further processing.
An internal standard (which may also be a chemically unrelated substance) is added to the samples of the compounds according to the invention, calibration samples and qualifiers, and there follows protein precipitation by means of excess acetonitrile. Addition of a buffer solution matched to the LC conditions, and subsequent vortexing, is followed by centrifugation at 1000 g. The supernatant is analysed by LC-MS/MS using C18 reversed-phase columns and variable mobile phase mixtures.
The substances are quantified via the peak heights or areas from extracted ion chromatograms of specific selected ion monitoring experiments.
The plasma concentration/time plots determined are used to calculate the pharmacokinetic parameters such as AUC, Cmax, t1/2 (terminal half life), F (Bioavailability), MRT (Mean Residence Time) and CL (Clearance), using a validated pharmacokinetic calculation programme.
Since the substance quantification is carried out in plasma, it is necessary to determine the blood/plasma distribution of the substance in order to be able to adjust the pharmacokinetic parameters correspondingly. For this purpose, a defined amount of substance is incubated in heparinised whole blood of the species in question in a rocking roller mixer for 20 min. After centrifugation at 1000 g, the plasma concentration is measured (by means of LC-MS/MS; see above) and determined by calculating the ratio of the Cblood/Cplasma value.

In the case of `Cc1nc2c(OCc3ncccc3F)cc(Cl)cn2c1C(=O)NC(CCCC(F)(F)F)C(C)(C)O` (single isomer, unassigned; ent-6) [Example 188, ent-6-chloro-8-[(3-fluoropyridin-2-yl)methoxy]-2-methyl-N-(7,7,7-trifluoro-2-hydroxy-2-methylheptan-3-yl)imidazo[1,2-a]pyridine-3-carboxamide (enantiomer A)], in data set [1], the “MEC (minimal effective concentration)” value is 0.3 µM. Moreover, in data set [2], the AUCnorm was determined as 2.3 kg·h/L, the CLblood worked out at 8.83 mL/min/kg, the MRT was found to be 2.5 h and the half-life is 1.7 h.
For `Cc1nc2c(OCc3ncccc3F)cc(Cl)cn2c1C(=O)NC(CCC(F)(F)C(F)(F)F)C(C)(C)O` (single isomer, unassigned; ent-6) [Example 194, ent-6-chloro-8-[(3-fluoropyridin-2-yl)methoxy]-2-methyl-N-(6,6,7,7,7-pentafluoro-2-hydroxy-2-methylheptan-3-yl)imidazo[1,2-a]pyridine-3-carboxamide (enantiomer A)], the “MEC (minimal effective concentration)” value in data set [1] was 0.53 µM. Also, in data set [2], the AUCnorm stood at 2.9 kg·h/L, the CLblood turned out to be 7.33 mL/min/kg, the MRT came out at 8.4 h and the half-life is 6.2 h.
The like results for `Cc1cc(OCc2ncccc2F)c2nc(C)c(C(=O)NC(CCCC(F)(F)F)C(C)(C)O)n2c1` (single isomer, unassigned; ent-8) [Example 181, ent-8-[(3-fluoropyridin-2-yl)methoxy]-2,6-dimethyl-N-(7,7,7-trifluoro-2-hydroxy-2-methylheptan-3-yl)imidazo[1,2-a]pyridine-3-carboxamide (enantiomer B)] were, in that order, 0.3 µM, 2.5 kg·h/L, 9.33 mL/min/kg, 3.3 h and 3.4 h.
For the compound `Cc1cc(OCc2ncccc2F)c2nc(C)c(C(=O)NC(CCC(F)(F)C(F)(F)F)C(C)(C)O)n2c1` (single isomer, unassigned; ent-8) [Example 187, ent-8-[(3-fluoropyridin-2-yl)methoxy]-2,6-dimethyl-N-(6,6,7,7,7-pentafluor-2-hydroxy-2-methylheptan-3-yl)imidazo[1,2-a]pyridine-3-carboxamide (enantiomer B)], the “MEC (minimal effective concentration)” value in data set [1] amounted to 1 µM. Further, in data set [2], the AUCnorm is 2.0 kg·h/L, the CLblood turned out to be 11.8 mL/min/kg, the MRT is 4 h and the half-life was 4.6 h.
Regarding `CCCC[C@@H](NC(=O)c1c(C)nc2c(OCc3c(F)cccc3F)cccn12)C(C)(C)O` [Example 147, 8-[(2,6-Difluorobenzyl)oxy]-N-[(3R)-2-hydroxy-2-methylheptan-3-yl]-2-methylimidazo[1,2-a]-pyridine-3-carboxamide], in data set [1], the “MEC (minimal effective concentration)” value was determined as 0.1 µM.
The same measure, in the same setting: the same measure for `Cc1nc2c(OCc3c(F)cccc3F)cccn2c1C(=O)NCCC(C)(C)O` [Example 153, 8-[(2,6-difluorobenzyl)oxy]-N-(3-hydroxy-3-methylbutyl)-2-methylimidazo[1,2-a]pyridine-3-carboxamide]: 0.3 µM; for `CCCC[C@H](CO)NC(=O)c1c(C)nc2c(OCc3c(F)cccc3F)cc(C#N)cn12` [Example 157, 6-Cyano-8-[(2,6-difluorobenzyl)oxy]-N-[(2R)-1-hydroxyhexan-2-yl]-2-methylimidazo[1,2-a]-pyridine-3-carboxamide]: 0.065 µM.
Consider `CCCC[C@H](CO)NC(=O)c1c(C)nc2c(OCCC(C)C)cccn12` [Example 159, N-[(2R)-1-Hydroxyhexan-2-yl]-2-methyl-8-(3-methylbutoxy)imidazo[1,2-a]pyridine-3-carboxamide], for which the “MEC (minimal effective concentration)” value in data set [1] was 1.0 µM.
On the same count and under the same terms, the value for `COC(=O)[C@H](CO)NC(=O)c1c(C)nc2c(OCc3c(F)cccc3F)cccn12` [Example 164, Methyl N-({8-[(2,6-difluorobenzyl)oxy]-2-methylimidazo[1,2-a]pyridin-3-yl}carbonyl)-L-serinate] was 0.2 µM.
As for `Cc1nc2c(OCc3c(F)cccc3F)cccn2c1C(=O)N[C@@H](CO)C(C)(C)O` [Example 165, 8-[(2,6-Difluorobenzyl)oxy]-N-[(2S)-3-dihydroxy-3-methylbutan-2-yl]-2-methylimidazo[1,2-a]-pyridine-3-carboxamide], the “MEC (minimal effective concentration)” value in data set [1] is 1.0 µM.
Regarding `CCCC[C@H](CO)NC(=O)c1c(C)nc2c(OCCC(C)C)cc(C)cn12` [Example 166, N-[(2R)-1-Hydroxyhexan-2-yl]-2,6-dimethyl-8-(3-methylbutoxy)imidazo[1,2-a]pyridine-3-carboxamide], in data set [1], the “MEC (minimal effective concentration)” value was 1.0 µM.
As to `CCCC[C@H](CO)NC(=O)c1c(C)nc2c(OCCC(C(F)(F)F)C(F)(F)F)cc(C)cn12` [Example 169, N-[(2R)-1-Hydroxyhexan-2-yl]-2,6-dimethyl-8-[4,4,4-trifluoro-3-(trifluoromethyl)butoxy]imidazo-[1,2-a]pyridine-3-carboxamide], in data set [1], the “MEC (minimal effective concentration)” value turned out to be 0.3 µM.
Consider `Cc1cc(OCCC(C(F)(F)F)C(F)(F)F)c2nc(C)c(C(=O)NC3c4ccccc4CC3O)n2c1` (stereo not shown) [Example 172, N-(2-Hydroxy-2,3-dihydro-1H-inden-1-yl)-2,6-dimethyl-8-[4,4,4-trifluoro-3-(trifluoromethyl)-butoxy]imidazo[1,2-a]pyridine-3-carboxamide], for which, in data set [1], the “MEC (minimal effective concentration)” value came out at 1.0 µM.
On the same count and under the same terms, the value for `Cc1cc(OCCC(C(F)(F)F)C(F)(F)F)c2nc(C)c(C(=O)NC3CCCC3O)n2c1` (stereo not shown) [Example 173, N-(2-hydroxycyclopentyl)-2,6-dimethyl-8-[4,4,4-trifluoro-3-(trifluoromethyl)butoxy]imidazo[1,2-a]pyridine-3-carboxamide] was 3.0 µM; that for `CCCC[C@H](CO)NC(=O)c1c(C)nc2c(OCc3c(F)cccc3F)c(F)ccn12` [Example 177, 8-[(2,6-Difluorobenzyl)oxy]-7-fluoro-N-[(2R)-1-hydroxyhexan-2-yl]-2-methylimidazo[1,2-a]-pyridine-3-carboxamide] was 1.0 µM.

The values above are taken from patent publication US8946215B2, “Hydroxy-substituted imidazo[1,2-a]pyridinecarboxamides and their use” (Bayer Pharma Aktiengesellschaft, priority 2012, dated 2015).
